As a reminder, the mortality is the percentage killed.

From patent publication US9133218B2, “Pesticidally active pyridyl- and pyrimidyl-substituted thiazole derivatives” (Syngenta Participations AG, priority 2012, dated 2015) come the findings set out here.

Holding throughout (assay type): in vivo
Assay [1] deals with Bemisia tabaci (Cotton White Fly). The experiment in a line: Activity against Bemisia tabaci (cotton white fly), cotton leaf disc spray test. The note with it: foliar, 144 h, read-out: activity (mortality and special effects) against Bemisia tabaci. As for the experimental part:
Activity Against Bemisia tabaci (Cotton White Fly)
Cotton leaf discs were placed on agar in a 24-well microtiter plate and sprayed with test solutions. After drying, the leaf discs were infested with 12 to 18 adults. After an incubation period of 6 days after infestation, samples were checked for mortality and special effects (e.g. phytotoxicity).

Assay [2] has as its system Myzus persicae (Green Peach Aphid). As to the kind of experiment: Activity against Myzus persicae (green peach aphid), sunflower leaf disc spray test. The conditions noted are these: foliar, 144 h, read-out: activity (mortality) against Myzus persicae. From the text:
Activity Against Myzus persicae (Green Peach Aphid)

For assay [3], the system named is Aedes aegypti (Yellow Fever Mosquito). The experiment in a line: whole plant or invertebrate. The conditions noted are these: 200 ppm in ethanol, adult females, after 48 h and/or 24 h, read-out: control of Aedes aegypti (mortality). As for the experimental part:
Aedes aegypti (Yellow Fever Mosquito)
Test solutions, at an application rate of 200 ppm in ethanol, were applied to 12 well tissue culture plates. Once the deposits were dry, five, two to five day old adult female Aedes aegypti were added to each well, and sustained with a 10% sucrose solution in a cotton wool plug. Mortality was assessed at 24 and 48 hours after introduction. The following compounds gave at least 80% control of Aedes aegypti after 48 h and/or 24 h: No. 1.026, 1.027, 1.030 and 1.025.

Assay [4] has as its system Anopheles stephensi (Indian Malaria Mosquito). As to the kind of experiment: Anopheles stephensi (Indian malaria mosquito) contact test on treated plates. The note with it: 200 ppm in ethanol, adult females, after 48 h and/or 24 h, read-out: control of Anopheles stephensi (mortality). As for the experimental part:
Anopheles stephensi (Indian Malaria Mosquito)
Test solutions, at an application rate of 200 ppm in ethanol, were applied to 12 well tissue culture plates. Once the deposits were dry, five, two to five day old adult female Anopheles stephensi were added to each well, and sustained with a 10% sucrose solution in a cotton wool plug. Mortality was assessed at 24 and 48 hours after introduction. The following compounds gave at least 80% control of Anopheles stephensi after 48 h and/or 24 h: No. 1.026 and 1.030.

Assay [5] relates to Tetranychusurticae (Two-Spotted Spider Mite). The experiment in a line: whole plant or invertebrate. The note with it: Tetranychus urticae, foliar, 192 h, read-out: activity (egg, larval and adult mortality) against Tetranychus urticae. From the text: Activity Against Tetranychusurticae (Two-Spotted Spider Mite)
Bean leaf discs on agar in 24-well microtiter plates are sprayed with test solutions. After drying, the leaf discs are infested with mite populations of mixed ages. 8 days later, discs are checked for egg mortality, larval mortality, and adult mortality.

Assay [6] concerns Spodoptera littoralis (Egyptian Cotton Leaf Worm). As to the kind of experiment: Activity against Spodoptera littoralis (Egyptian cotton leaf worm), systemic lettuce test. The conditions noted are these: 120 h, systemic via lettuce roots, 5 days after infestation, read-out: activity (mortality, repellent effect, feeding behavior, growth regulation) against Spodoptera littoralis. From the text:
Activity Against Spodoptera littoralis (Egyptian Cotton Leaf Worm)
Test compounds were applied by pipette into 24 well plates and mixed with agar. Lettuce seeds were placed on the agar and the multi well plate is closed by another plate which contains also agar. After 7 days the roots have absorbed the compound and the lettuce has grown into the lid plate. The lettuce leafs were now cut off into the lid plate. Spodoptera eggs were pipetted through a plastic stencil on a humid gel blotting paper and the plate closed with it. The samples are checked for mortality, repellent effect, feeding behavior, and growth regulation 5 days after infestation.

Assay [7] has as its system Heliothis virescens (Tobacco Budworm). The experiment in a line: Activity against Heliothis virescens (tobacco budworm), eggs on artificial diet. The conditions noted are these: eggs 0-24 h old, 4 days incubation, read-out: activity (egg mortality, larval mortality, growth regulation) against Heliothis virescens. As for the experimental part: Activity Against Heliothis virescens (Tobacco Budworm)
Eggs (0-24 h old) are placed in 24-well microtiter plate on artificial diet and treated with test solutions by pipetting. After an incubation period of 4 days, samples are checked for egg mortality, larval mortality, and growth regulation.

Setting [8] is: 200 ppm, adults, 6 days after infestation.
Setting [9] is: 200 ppm, mixed-age aphid population, 6 days incubation.

Like-named read-outs stand apart in the source and are kept apart here.

Turning to `Cc1nc(-c2cccnc2)sc1-c1ccc2c(n1)/C(=N/O)CCC2` (single isomer, unassigned) [Compound 1.025, 2-[4-methyl-2-(3-pyridyl)thiazol-5-yl]-6,7-dihydro-5H-quinolin-8-one oxime], the mortality at 200 ppm was more than 80% in assay [1] (setting [8]), more than 80% in assay [2] (setting [9]) and not below 80% in assay [3].

As for `CCO/N=C1\CCCc2ccc(-c3cnc(-c4cccnc4)s3)nc21` [Compound 1.003], the mortality at 200 ppm in assay [1] (setting [8]) and in assay [2] (setting [9]) was more than 80% in each case.

`CO/N=C1\CCCc2ccc(-c3sc(-c4cccnc4)nc3C)nc21` [Compound 1.026]: the mortality at 200 ppm in assay [1] (setting [8]) was more than 80%; in assay [4], not below 80%; in assay [2] (setting [9]), more than 80%; in assay [3] it was not below 80%.

`CCO/N=C1\CCCc2ccc(-c3sc(-c4cccnc4)nc3C)nc21` [Compound 1.027]: the values for the mortality at 200 ppm in assay [1] (setting [8]), in assay [2] (setting [9]) and in assay [3] were more than 80%, more than 80% and not below 80%, respectively.

Regarding `CCCO/N=C1\CCCc2ccc(-c3sc(-c4cccnc4)nc3C)nc21` [Compound 1.028], the mortality at 200 ppm in assay [1] (setting [8]), in assay [5] and in assay [2] (setting [9]) was more than 80% throughout.

For `Cc1nc(-c2cccnc2)sc1-c1ccc2c(n1)/C(=N/OC(C)C)CCC2` [Compound 1.029], the mortality at 200 ppm in assay [1] (setting [8]) and in assay [2] (setting [9]) was more than 80% throughout.

On to `C=CCO/N=C1\CCCc2ccc(-c3sc(-c4cccnc4)nc3C)nc21` [Compound 1.030], for which the mortality at 200 ppm is more than 80% in assay [1] (setting [8]), not below 80% in assay [4], more than 80% in assay [2] (setting [9]) and not below 80% in assay [3].

Turning to `CO/N=C1\CCOc2ccc(-c3sc(-c4cccnc4)nc3C)nc21` [Compound 1.032, N-methoxy-6-[4-methyl-2-(3-pyridyl)thiazol-5-yl]-2,3-dihydropyrano[3,2-b]pyridin-4-imine], the mortality at 200 ppm in assay [1] (setting [8]) and in assay [2] (setting [9]) was more than 80% throughout.

`CCO/N=C1\CCOc2ccc(-c3sc(-c4cccnc4)nc3C)nc21` [Compound 1.033]: the mortality at 200 ppm in assay [1] (setting [8]) and in assay [2] (setting [9]) was more than 80% each time.

As to `Cc1nc(-c2cccnc2)sc1-c1ccc2c(n1)/C(=N/OC(C)C)CCO2` [Compound 1.035], the mortality at 200 ppm in assay [1] (setting [8]) and in assay [2] (setting [9]) was more than 80% each time.

On to `C=CCO/N=C1\CCOc2ccc(-c3sc(-c4cccnc4)nc3C)nc21` [Compound 1.036], for which the mortality at 200 ppm in assay [1] (setting [8]) and in assay [2] (setting [9]) was more than 80% throughout.

Turning to `Cc1nc(-c2cccnc2)sc1-c1ccc2c(n1)/C(=N/OCCCc1ccccc1)CCC2` [Compound 1.049], the mortality at 200 ppm in assay [1] (setting [8]) and in assay [2] (setting [9]) was more than 80% each time.

In the case of `Cc1nc(-c2cccnc2)sc1-c1ccc2c(n1)/C(=N/OCC(F)F)CCC2` [Compound 1.050], the mortality at 12.5 ppm in assay [6] is more than 80%. For the same compound, the mortality at 200 ppm in assay [2] (setting [9]) is more than 80%.

As for `Cc1nc(-c2cccnc2)sc1-c1ccc2c(n1)/C(=N/OCCCC1OCCO1)CCC2` [Compound 1.051], the mortality at 200 ppm in assay [2] (setting [9]) is more than 80%.

Regarding `Cc1nc(-c2cccnc2)sc1-c1ccc2c(n1)/C(=N/OCCc1ccc(F)cc1)CCC2` [Compound 1.053], the mortality at 12.5 ppm in assay [6] is more than 80%. The mortality at 200 ppm in assay [2] (setting [9]) is more than 80%.

Take `Cc1nc(-c2cccnc2)sc1-c1ccc2c(n1)/C(=N/OCCC1CCCN1C)CCC2` (centres unmarked) [Compound 1.054]: the mortality at 200 ppm in assay [2] (setting [9]) is more than 80%.

Consider `Cc1nc(-c2cccnc2)sc1-c1ccc2c(n1)/C(=N/OCc1ccc(Cl)cc1)CCC2` [Compound 1.062], for which the mortality at 200 ppm in assay [2] (setting [9]) is more than 80%.

For the compound `Cc1nc(-c2cccnc2)sc1-c1ccc2c(n1)/C(=N/OCC#Cc1ccccc1)CCC2` [Compound 1.063], the mortality at 200 ppm in assay [5] and in assay [2] (setting [9]) was more than 80% throughout.

In the case of `Cc1nc(-c2cccnc2)sc1-c1ccc2c(n1)/C(=N/OCC1CCCCC1)CCC2` [Compound 1.064], the mortality at 200 ppm in assay [2] (setting [9]) was more than 80%.

As for `Cc1nc(-c2cccnc2)sc1-c1ccc2c(n1)/C(=N/OCCSc1ccc(F)cc1)CCC2` [Compound 1.065], the mortality at 200 ppm in assay [7] was more than 80%.

Consider `Cc1nc(-c2cccnc2)sc1-c1ccc2c(n1)/C(=N/OCC1OCCO1)CCC2` [Compound 1.066], for which, in assay [2] (setting [9]), the mortality at 200 ppm was more than 80%.

For the compound `Cc1nc(-c2cccnc2)sc1-c1ccc2c(n1)/C(=N/OCc1cc(C(F)(F)F)cc(C(F)(F)F)c1)CCC2` [Compound 1.067], the mortality at 12.5 ppm in assay [6] was more than 80%.

Turning to `Cc1nc(-c2cccnc2)sc1-c1ccc2c(n1)/C(=N/OCc1ccccc1)CCC2` [Compound 1.068], the mortality at 200 ppm in assay [2] (setting [9]) was more than 80%.

Turning to `CO/N=C1\CCSc2sc(-c3sc(-c4cccnc4)nc3C)nc21` [Compound 3.050, N-methoxy-2-[4-methyl-2-(3-pyridyl)thiazol-5-yl]-5,6-dihydrothiopyrano[3,2-d]thiazol-7-imine], the mortality at 200 ppm in assay [1] (setting [8]) and in assay [2] (setting [9]) was more than 80% each time.

Regarding `CCO/N=C1\CCSc2sc(-c3sc(-c4cccnc4)nc3C)nc21` [Compound 3.051], the mortality at 200 ppm in assay [1] (setting [8]) and in assay [2] (setting [9]) was more than 80% each time.

Turning to `C=CCO/N=C1\CCSc2sc(-c3sc(-c4cccnc4)nc3C)nc21` [Compound 3.053], the mortality at 200 ppm in assay [1] (setting [8]) and in assay [2] (setting [9]) was more than 80% each time.

For the compound `CN/N=C1\CCCc2ccc(-c3sc(-c4cccnc4)nc3C)nc21` [Compound 6.009], in assay [2] (setting [9]), the mortality at 200 ppm is more than 80%.

Take `COC(=O)N/N=C1\CCCc2ccc(-c3sc(-c4cccnc4)nc3C)nc21` [Compound 6.011, Methyl N-[(E)-[2-[4-methyl-2-(3-pyridyl)thiazol-5-yl]-6,7-dihydro-5H-quinolin-8-ylidene]amino]carbamate]: the mortality at 200 ppm in assay [1] (setting [8]) and in assay [2] (setting [9]) was more than 80% throughout.

As for `CN/N=C1\CCOc2ccc(-c3sc(-c4cccnc4)nc3C)nc21` [Compound 6.016], the mortality at 200 ppm in assay [2] (setting [9]) was more than 80%.

For `COC(=O)N/N=C1\CCOc2ccc(-c3sc(-c4cccnc4)nc3C)nc21` [Compound 6.018], the mortality at 200 ppm in assay [1] (setting [8]) was more than 80%.

In the case of `COC(=O)N(C)/N=C1\CCOc2ccc(-c3sc(-c4cccnc4)nc3C)nc21` [Compound 6.019], the mortality at 200 ppm in assay [1] and in assay [2] was more than 80% throughout.

`Cc1nc(-c2cccnc2)sc1-c1ccc2c(n1)/C(=N/N(C)S(C)(=O)=O)CCO2` [Compound 6.021]: the mortality at 200 ppm in assay [1] (setting [8]) is more than 80%.

Consider `Cc1nc(-c2cccnc2)sc1-c1ccc2c(n1)/C(=N/Nc1ccc(F)cc1)CCC2` [Compound 6.029], for which, in assay [2] (setting [9]), the mortality at 200 ppm is more than 80%.

In the case of `Cc1nc(-c2cccnc2)sc1-c1ccc2c(n1)/C(=N/NCC(F)(F)F)CCC2` [Compound 6.032], the mortality at 200 ppm in assay [2] (setting [9]) is more than 80%.

As for `Cc1nc(-c2cccnc2)sc1-c1ccc2c(n1)/C(=N\NCC(F)(F)F)CCC2` [Compound 6.033], the mortality at 200 ppm in assay [7] and in assay [2] (setting [9]) was more than 80% in each case.

In the case of `COc1ccc(N/N=C2\CCCc3ccc(-c4sc(-c5cccnc5)nc4C)nc32)cc1` [Compound 6.034], the mortality at 200 ppm in assay [2] (setting [9]) is more than 80%.

Turning to `Cc1nc(-c2cccnc2)sc1-c1ccc2c(n1)/C(=N/NC(C)(C)C)CCC2` [Compound 6.035], the mortality at 200 ppm in assay [2] (setting [9]) is more than 80%.
